Assay results published in patent publication US12098145B2 (Libra Therapeutics, Inc., priority 2022, dated 2024).
Structures can show the parent of a compound that is named as a salt. Where two headings read alike, the source gives them in different places.

Columns and labels:
[1] = molecular target: T1, TRPML1 (Homo sapiens, UniProt Q9GZU1); assay: Cellular TRPML1 assay (FLIPR, GCaMP6f calcium read-out); format: cell-based; conditions: HEKT-REx/GCaMP6f/TRPML1 cells, FLIPR TETRA, kinetic response over 300 seconds; read-out: TRPML1 FLIPR pEC50 (converted)
T1 construct: expressed in transfected cells; host or cells: HEK T-REx cells stably expressing GCaMP6f and TRPML1
Outline: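 HEK T-REx cells stably expressing TRPML1 and GCaMP6f, seeded 24 h before in Optimem + 0.5% FBS. After ~10 min pre-incubation at room temperature, compounds in Ca2+-free Tyrode's buffer were injected on FLIPR Tetra (final DMSO 0.5%). Calcium fluorescence kinetics followed for 300 s.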

[2] = system: TFEB; assay: TFEB translocation assay (TFEB reporter in U2OS cells, imaging); format: cell-based; conditions: Homo sapiens, read-out: TFEB Translocation pEC50 (converted)
Outline: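 U2OS cells stably expressing mRFP-fused TFEB reporter, switched to Opti-MEM then treated 2 h at 37 °C with compounds (0.5% DMSO, 0.015% Tween 80). Hoechst-stained, PFA-fixed cells imaged at 20×; nucleus/cytoplasm intensity ratio per well normalized to Torin-1 (100%) and DMSO (0%).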

[3] = U2OS cell line with TFEB reporter, 2 hours incubation, nucleus to cytoplasm ratio, normalized to Torin-1

T1 sequence (Q9GZU1 whole entry): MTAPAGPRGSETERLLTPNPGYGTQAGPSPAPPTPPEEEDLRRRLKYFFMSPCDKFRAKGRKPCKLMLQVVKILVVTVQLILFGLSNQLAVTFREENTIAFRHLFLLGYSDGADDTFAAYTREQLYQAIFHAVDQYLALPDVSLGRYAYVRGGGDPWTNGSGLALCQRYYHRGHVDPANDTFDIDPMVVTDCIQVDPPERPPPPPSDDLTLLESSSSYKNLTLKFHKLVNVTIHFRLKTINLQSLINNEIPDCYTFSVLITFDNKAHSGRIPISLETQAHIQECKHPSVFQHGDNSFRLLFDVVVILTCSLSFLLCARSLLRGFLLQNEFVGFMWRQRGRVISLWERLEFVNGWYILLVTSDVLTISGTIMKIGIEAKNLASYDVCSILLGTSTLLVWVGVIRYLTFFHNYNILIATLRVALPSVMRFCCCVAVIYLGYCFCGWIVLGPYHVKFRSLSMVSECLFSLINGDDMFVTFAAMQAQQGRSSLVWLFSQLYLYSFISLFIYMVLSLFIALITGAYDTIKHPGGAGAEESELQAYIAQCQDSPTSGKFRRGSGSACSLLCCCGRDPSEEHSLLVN

Row | EC50 [1] [nM] | SMILES | EC50 [2, 3] [nM] | EC50 ([2]; U2OS, 2 h) [nM]
1 | 10 to 1000 | COC1(C)CN(c2nc(C(=O)Nc3cc(F)c(O[C@@H]4C[C@@H]5C[C@@H]5C4)c(C#N)c3)c(CC(F)(F)F)o2)C1 [Example 142, N-(4-(cis-bicyclo[3.1.0]hexan-3-yloxy)-3-cyano-5-fluorophenyl)-2-(3-methoxy-3-methylazetidin-1-yl)-5-(2,2,2-trifluoroethyl)oxazole-4-carboxamide] | 10 to 1000 | –
2 | 10 to 1000 | CCC1(OC)CN(c2nc(C(=O)Nc3cc(F)c(O[C@@H]4C[C@@H]5C[C@@H]5C4)c(F)c3)c(CN(C)C)o2)C1 [Example 303, N-(4-(cis-bicyclo[3.1.0]hexan-3-yloxy)-3,5-difluorophenyl)-5-((dimethylamino)methyl)-2-(3-ethyl-3-methoxyazetidin-1-yl)oxazole-4-carboxamide] | 10 to 1000 | –
3 | 10 to 1000 | CCc1oc(N2CC(CC)(OC)C2)nc1C(=O)Nc1cc(F)c(O[C@@H]2C[C@@H]3C[C@@H]3C2)c(F)c1 [Example 238, N-(4-(cis-bicyclo[3.1.0]hexan-3-yloxy)-3,5-difluorophenyl)-5-ethyl-2-(3-ethyl-3-methoxyazetidin-1-yl)oxazole-4-carboxamide] | 10 to 1000 | –
4 | 10 to 1000 | CCC1(CC)CN(c2nc(C(=O)Nc3cc(F)c(O[C@@H]4C[C@@H]5C[C@@H]5C4)c(F)c3)c(CC(F)(F)F)o2)C1 [Example 183, N-(4-(cis-bicyclo[3.1.0]hexan-3-yloxy)-3,5-difluorophenyl)-2-(3,3-diethylazetidin-1-yl)-5-(2,2,2-trifluoroethyl)oxazole-4-carboxamide] | 10 to 1000 | –
5 | 10 to 1000 | CCc1oc(N2CC(CC)(CC)C2)nc1C(=O)Nc1ccc(O[C@@H]2C[C@@H]3C[C@@H]3C2)c(F)c1 [Example 245, N-(4-(cis-bicyclo[3.1.0]hexan-3-yloxy)-3-fluorophenyl)-2-(3,3-diethylazetidin-1-yl)-5-ethyloxazole-4-carboxamide] | 10 to 1000 | –
6 | 10 to 1000 | CCC1(CC)CN(c2nc(C(=O)Nc3cc(F)c(OC4CC5CC(C5)C4)c(F)c3)c(CCF)o2)C1 (stereo not drawn) [Example 286, N-(4-(bicyclo[3.1.1]heptan-3-yloxy)-3,5-difluorophenyl)-2-(3,3-diethylazetidin-1-yl)-5-(2-fluoroethyl)oxazole-4-carboxamide] | 10 to 1000 | –
7 | 10 to 1000 | CC1(C)CCCN1c1nc(C(=O)Nc2cc(F)c(O[C@@H]3C[C@@H]4C[C@@H]4C3)c(F)c2)c(CC(F)(F)F)o1 [Example 172, N-(4-(cis-bicyclo[3.1.0]hexan-3-yloxy)-3,5-difluorophenyl)-2-(2,2-dimethylpyrrolidin-1-yl)-5-(2,2,2-trifluoroethyl)oxazole-4-carboxamide] | 10 to 1000 | –
8 | 1000 to 10000 | CC1(C)CN(c2nc(C(=O)Nc3ccc(OC4CCC5CC54)c(F)c3)c(CC(F)(F)F)o2)C1 (stereo not drawn) [Example 140, N-(4-(bicyclo[3.1.0]hexan-2-yloxy)-3-fluorophenyl)-2-(3,3-dimethylazetidin-1-yl)-5-(2,2,2-trifluoroethyl)oxazole-4-carboxamide] | 10 to 1000 | –
9 | 10 to 1000 | O=C(Nc1cc(F)c(OC2CC3C[C@H]3C2)c(F)c1)c1nc(N2C[C@@H]3CCO[C@@H]3C2)oc1CC(F)(F)F (stereo partly drawn) [Example 180, N-(4-(cis-bicyclo[3.1.0]hexan-3-yloxy)-3,5-difluorophenyl)-2-((3aS,6aS)-hexahydro-5H-furo[2,3-c]pyrrol-5-yl)-5-(2,2,2-trifluoroethyl)oxazole-4-carboxamide] | 10 to 1000 | –
10 | 10 to 1000 | COC1(C)CN(c2nc(C(=O)Nc3cc(C)c(OC4CC5CC(C5)C4)c(F)c3)c(CCF)o2)C1 (stereo not drawn) [Example 281, N-(4-(bicyclo[3.1.1]heptan-3-yloxy)-3-fluoro-5-methylphenyl)-5-(2-fluoroethyl)-2-(3-methoxy-3-methylazetidin-1-yl)oxazole-4-carboxamide] | 10 to 1000 | –
11 | 10 to 1000 | COC1(C)CN(c2nc(C(=O)Nc3cc(C)c(NC4C5CCCC4CC5)c(F)c3)c(CC(F)(F)F)o2)C1 (stereo not drawn) [Example 195, N-(4-(bicyclo[3.2.1]octan-8-ylamino)-3-fluoro-5-methylphenyl)-2-(3-methoxy-3-methylazetidin-1-yl)-5-(2,2,2-trifluoroethyl)oxazole-4-carboxamide] | 10 to 1000 | –
12 | 1000 to 10000 | O=C(Nc1ccc(N2CCCCC2)c(F)c1)c1nc(N2CC3(C2)CC(F)(F)C3)oc1CC(F)(F)F [Example 30, 2-{6,6-difluoro-2-azaspiro[3.3]heptan-2-yl}-N-[3-fluoro-4-(piperidin-1-yl)phenyl]-5-(2,2,2-trifluoroethyl)oxazole-4-carboxamide] | 1000 to 10000 | –

The next lines start with the compound.

Row | SMILES | EC50 [1] [nM] | EC50 [2, 3] [nM] | EC50 ([2]; U2OS, 2 h) [nM]
13 | CCC1(CC)CN(c2nc(C(=O)Nc3cc(C)c(O[C@@H]4C[C@@H]5C[C@@H]5C4)c(F)c3)c(COC)o2)C1 [Example 293, N-(4-(cis-bicyclo[3.1.0]hexan-3-yloxy)-3-fluoro-5-methylphenyl)-2-(3,3-diethylazetidin-1-yl)-5-(methoxymethyl)oxazole-4-carboxamide] | 10 to 1000 | 10 to 1000 | –
14 | O=C(Nc1cc(F)c(OC2CC3CC(C3)C2)c(F)c1)c1nc(N2CCC3(CC3)C2)oc1CCF (stereo not drawn) [Example 284, N-(4-(bicyclo[3.1.1]heptan-3-yloxy)-3,5-difluorophenyl)-5-(2-fluoroethyl)-2-(5-azaspiro[2.4]heptan-5-yl)oxazole-4-carboxamide] | 10 to 1000 | 10 to 1000 | –
15 | CCC1(OC)CN(c2nc(C(=O)Nc3cc(F)c(OC4CC5CCC4C5)c(F)c3)c(CC(F)(F)F)o2)C1 (stereo not drawn) [Example 150, N-(4-(bicyclo[2.2.1]heptan-2-yloxy)-3,5-difluorophenyl)-2-(3-ethyl-3-methoxyazetidin-1-yl)-5-(2,2,2-trifluoroethyl)oxazole-4-carboxamide] | 10 to 1000 | 10 to 1000 | –
16 | O=C(Nc1cc(F)c(O[C@@H]2C[C@@H]3C[C@@H]3C2)c(F)c1)c1nc(N2CCC3CCCCC32)oc1CC(F)(F)F (stereo partly drawn) [Example 163, N-(4-(cis-bicyclo[3.1.0]hexan-3-yloxy)-3,5-difluorophenyl)-2-(octahydro-1H-indol-1-yl)-5-(2,2,2-trifluoroethyl)oxazole-4-carboxamide] | 10 to 1000 | 10 to 1000 | –
17 | CCN(C)Cc1oc(N2CC(CC)(OC)C2)nc1C(=O)Nc1cc(O)c(OC2CC3CC(C3)C2)c(F)c1 (stereo not drawn) [Example 309, N-(4-(bicyclo[3.1.1]heptan-3-yloxy)-3-fluoro-5-hydroxyphenyl)-5-((ethyl(methyl)amino)methyl)-2-(3-ethyl-3-methoxyazetidin-1-yl)oxazole-4-carboxamide] | 1000 to 10000 | – | 1000 to 10000
18 | CCN(C)Cc1oc(N2CC(C)(OC)C2)nc1C(=O)Nc1cc(F)c(OC2CC3CC(C3)C2)c(F)c1 (stereo not drawn) [Example 307, N-(4-(bicyclo[3.1.1]heptan-3-yloxy)-3,5-difluorophenyl)-5-((ethyl(methyl)amino)methyl)-2-(3-methoxy-3-methylazetidin-1-yl)oxazole-4-carboxamide hydrochloride] | 10 to 1000 | 10 to 1000 | –
19 | O=C(Nc1ccc(N2CCCCC2)c(F)c1)c1nc(N2CCC3(CCOC3)C2)oc1CC(F)(F)F (stereo not drawn) [Example 31, N-(3-fluoro-4-(piperidin-1-yl)phenyl)-2-(2-oxa-7-azaspiro[4.4]nonan-7-yl)-5-(2,2,2-trifluoroethyl)oxazole-4-carboxamide] | 1000 to 10000 | 1000 to 10000 | –
20 | COC1(C)CN(c2nc(C(=O)Nc3cc(C)c(O[C@@H]4C[C@@H]5C[C@@H]5C4)c(F)c3)c(CC(F)(F)F)o2)C1 [Example 164, N-(4-(cis-bicyclo[3.1.0]hexan-3-yloxy)-3-fluoro-5-methylphenyl)-2-(3-methoxy-3-methylazetidin-1-yl)-5-(2,2,2-trifluoroethyl)oxazole-4-carboxamide] | 10 to 1000 | 10 to 1000 | –
21 | CC(C)OCc1oc(N2CCCC2)nc1C(=O)Nc1ccc(N2CCCCC2)c(F)c1 [Example 108, N-(3-fluoro-4-(piperidin-1-yl)phenyl)-5-(isopropoxymethyl)-2-(pyrrolidin-1-yl)oxazole-4-carboxamide] | 1000 to 10000 | 10 to 1000 | –
